# According to patent US20090215774A1, “USES OF INDANE COMPOUNDS” (H. LUNDBECK A/S, priority 2008, published 2009):
# Like-named read-outs stand apart in the source and are kept apart here.
# Tests used:
# [1] = target: T1, DAT Dopamine Transporter (Rattus norvegicus, UniProt P23977); assay: Measurements of [3H]dopamine uptake into rat cortical synaptosomes; format: biochemical
# T1 construct: male wistar rats (125-250 g) are sacrificed by decapitation and striatum quickly dissected out; from tissue; host or cells: rat striatum, P2 fraction
# Description: Measurements of [^3H]Dopamine Uptake Into Rat Cortical Synaptosomes
# The tissue is gently homogenised (glass teflon homogeniser) and the P2 fraction is obtained by centrifugation (1000 g, 10 minutes and 40000 g, 20 minutes, 4° C.) and suspended in 560 volumes of a modified Krebs-Ringer-phosphate buffer, pH 7.4.
# Tissue 0.25 mg/well (140 μl) (original tissue) is mixed with test suspension. […] Final volume is 0.2 mL. The incubation is terminated by filtering the samples under vacuum through Whatman GF/C filters with a wash of 1×0.2 ml buffer. The filters are dried and appropriate scintillation fluid (Optiphase Supermix) is added. After storage for 2 hours in the dark the content of radioactivity is determined by liquid scintillation counting. Uptake is obtained by subtracting the non-specific binding and passive transport measured in the presence of 100 μM of benztropin. For determination of the inhibition of uptake ten concentrations of drugs covering 6 decades are used.
# ^3H-DA=3,4-(ring-2,5,6-^3H)dopamine hydrochloride from New England Nuclear, specific activity 30-50 Ci/mmol.
# [2] = target: NAT Noradrenergic Transporter (Rattus norvegicus, UniProt Q9WTR4); assay: Measurements of [3H]noradrenaline uptake into rat cortical synaptosomes; format: biochemical
# Description: Measurements of [^3H]Noradrenaline Uptake Into Rat Cortical Synaptosomes
# The homogenate is centrifuged at 1000×g for 10 min at 4° C. The pellet is discarded and the supernatant is centrifuged at 40.000×g for 20 min. […] Pellet is suspended in 140 volumes of assaybuffer. Tissue is mixed with test compounds and after 10 min pre-incubation, 10 nM [^3H]-noradrenaline is added to a final volume of 0.2 ml and the mixture is incubated for 15 min at 37° C. After 15 min incubation, samples are filtered directly on Unifilter GF/C glass fiber filters (soaked for 30 min in 0.1% polyethylenimine) under vacuum and immediately washed with 1×0.2 mL assay buffer. Non-specific uptake is determined using talsupram (10 μM final concentration). Duloxetine is included as reference in all experiments as dose-response curve.
# [3] = target: T2, 5-HTT Serotonin Transporter (Rattus norvegicus, UniProt P31652); assay: Measurements of [3H]-5-HT uptake into rat cortical synaptosomes; format: biochemical
# T2 construct: Whole brains from male Wistar rats (125-225 g), excluding cerebellum, are homogenized; from tissue; host or cells: rat whole brain excluding cerebellum, synaptosomal (P2) pellet
# Description: Measurements of [^3H]-5-HT Uptake Into Rat Cortical Synaptosomes
# The homogenate is centrifuged at 1000×g for 10 rain at 4° C. The pellet is discarded and the supernatant is centrifuged at 40.000×g for 20 min. The final pellet is homogenized in assay buffer (0.5 mg original tissue/well). Test compounds (or buffer) and 10 nM [^3H]-5-HT are added to 96 well plates. […] The incubation is started by adding tissue to a final assay volume of 0.2 mL. After 15 min incubation with radioligand at 37° C., samples are filtered directly on Unifilter GF/C glass fiber filters (soaked for 30 min in 0.1% polyethylenimine) under vacuum and immediately washed with 1×0.2 ml assay buffer. Non-specific uptake is determined using citalopram (10 μM final concentration). Citalopram is included as reference in all experiments as dose-response curve.
# [4] = 24 weeks' treatment, patients, cited from earlier work
# Chain of NAT Noradrenergic Transporter (Q9WTR4 6-550 limits assumed): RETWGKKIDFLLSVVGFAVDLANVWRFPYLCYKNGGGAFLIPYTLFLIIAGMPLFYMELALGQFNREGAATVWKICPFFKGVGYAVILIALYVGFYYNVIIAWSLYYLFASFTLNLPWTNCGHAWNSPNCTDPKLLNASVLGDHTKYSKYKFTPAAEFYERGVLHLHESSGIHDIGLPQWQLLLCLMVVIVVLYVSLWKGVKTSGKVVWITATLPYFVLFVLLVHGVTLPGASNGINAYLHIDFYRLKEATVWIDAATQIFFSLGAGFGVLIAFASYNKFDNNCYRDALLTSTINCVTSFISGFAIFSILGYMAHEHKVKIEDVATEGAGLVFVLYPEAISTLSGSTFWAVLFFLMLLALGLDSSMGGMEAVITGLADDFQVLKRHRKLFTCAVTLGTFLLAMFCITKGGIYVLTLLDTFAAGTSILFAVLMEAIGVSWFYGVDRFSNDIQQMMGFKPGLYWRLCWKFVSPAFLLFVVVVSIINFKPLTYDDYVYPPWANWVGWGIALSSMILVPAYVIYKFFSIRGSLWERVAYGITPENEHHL
# T2 sequence (P31652 whole entry): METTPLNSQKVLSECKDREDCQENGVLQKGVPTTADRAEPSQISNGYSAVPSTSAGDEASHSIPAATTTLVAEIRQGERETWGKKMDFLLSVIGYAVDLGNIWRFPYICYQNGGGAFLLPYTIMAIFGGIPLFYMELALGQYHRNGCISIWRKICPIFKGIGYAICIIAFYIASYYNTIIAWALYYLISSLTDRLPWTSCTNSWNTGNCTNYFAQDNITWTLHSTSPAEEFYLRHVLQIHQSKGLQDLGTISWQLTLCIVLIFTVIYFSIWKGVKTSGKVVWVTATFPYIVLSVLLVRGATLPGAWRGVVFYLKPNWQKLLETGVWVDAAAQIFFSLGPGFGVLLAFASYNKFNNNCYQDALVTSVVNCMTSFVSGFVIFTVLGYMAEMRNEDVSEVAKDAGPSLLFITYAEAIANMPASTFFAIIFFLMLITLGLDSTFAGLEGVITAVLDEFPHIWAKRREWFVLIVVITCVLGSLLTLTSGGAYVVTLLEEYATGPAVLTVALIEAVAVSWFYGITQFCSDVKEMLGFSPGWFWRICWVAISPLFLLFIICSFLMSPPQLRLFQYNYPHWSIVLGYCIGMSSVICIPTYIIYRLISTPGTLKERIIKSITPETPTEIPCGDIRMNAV
# T1 sequence (P23977 whole entry): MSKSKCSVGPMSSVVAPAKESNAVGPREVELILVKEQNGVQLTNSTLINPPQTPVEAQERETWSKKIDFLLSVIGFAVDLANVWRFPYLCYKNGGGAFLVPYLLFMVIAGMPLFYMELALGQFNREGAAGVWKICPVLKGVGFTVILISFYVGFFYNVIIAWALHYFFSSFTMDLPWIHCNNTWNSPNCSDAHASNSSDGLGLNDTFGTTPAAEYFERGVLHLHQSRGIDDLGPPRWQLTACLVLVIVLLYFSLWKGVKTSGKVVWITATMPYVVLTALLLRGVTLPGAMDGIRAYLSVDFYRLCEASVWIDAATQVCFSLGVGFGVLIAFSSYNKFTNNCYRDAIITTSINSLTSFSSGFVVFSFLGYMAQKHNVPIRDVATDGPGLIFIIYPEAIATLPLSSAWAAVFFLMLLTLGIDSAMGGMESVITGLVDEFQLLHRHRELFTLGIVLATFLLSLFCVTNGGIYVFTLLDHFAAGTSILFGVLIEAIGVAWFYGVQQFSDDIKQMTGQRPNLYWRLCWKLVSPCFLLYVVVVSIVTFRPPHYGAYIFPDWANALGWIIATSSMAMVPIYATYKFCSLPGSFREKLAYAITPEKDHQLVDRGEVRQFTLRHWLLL
SMILES,IC50 [1] [nM],IC50 [2] [nM],IC50 [3] [nM],average weight loss ([4]; 0.25 mg) [%],average weight loss ([4]; 0.5 mg) [%],average weight loss ([4]; 1 mg) [%]
CN[C@@H]1C[C@@H](c2c[nH]c3ccccc23)c2ccccc21 [Formula IX],0.1 to 200,0.1 to 200,0.1 to 200,–,–,–
CN[C@@H]1C[C@@H](c2c[nH]c3ccc(Cl)cc23)c2ccccc21 [Formula VIII],0.1 to 200,0.1 to 200,0.1 to 200,–,–,–
CN[C@H]1C[C@@H](c2c[nH]c3c(F)cccc23)c2ccccc21 [Formula VII],0.1 to 200,0.1 to 200,0.1 to 200,–,–,–
CN[C@@H]1C[C@H](c2c[nH]c3c(F)cccc23)c2ccccc21 [Formula VI],0.1 to 200,0.1 to 200,0.1 to 200,–,–,–
CN[C@@H]1C[C@@H](c2c[nH]c3cc(OC)ccc23)c2ccccc21 [Formula X],0.1 to 200,0.1 to 200,0.1 to 200,–,–,–
CCOC[C@@H]1[C@@H](c2ccc(Cl)c(Cl)c2)C[C@@H]2CC[C@H]1N2C [Tesofensine],–,–,–,6.5,11.2,12.6
